For assay [1], the system named is LoVo. Put plainly: Cytotoxicity assay (SRB), LoVo. The class given is cell-based. Conditions: Homo sapiens, LoVo, 72 h, read-out: In Vitro Cellular Activity IC50 LOVO. Put shortly:
(§1)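 Cells grown in RPMI 1640 with 5% FBS were treated with compound for three days (HCT-116, LoVo, MCF-7) or six days (BT474). Viable cell mass was quantified by sulforhodamine B staining of TCA-fixed protein and read at 540 nm.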

The target of assay [2] is T1, cyclin D1/cdk 4 enzyme (Homo sapiens, UniProt P11802).
T1 construct: made in house; host or cells: Sf9 insect cells, recombinant baculovirus
Put plainly: CDK4 ELISA kinase assay (phospho-Rb ser 795 detection). It is filed as biochemical. The gist of the method: (§2)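 ELISA format: plate-bound GST-Rb, 200 μM ATP, Sf9 cyclin/CDK enzyme, 1 h at 30° C; then anti-pRb Ser795 primary overnight at 4° C, HRP secondary, TMB. IC50 after no-substrate background subtraction.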
For orientation: An ELISA detects its analyte on a solid surface through an enzyme-linked reagent.

Assay [3] concerns HCT-116. Put plainly: Cytotoxicity assay (SRB), HCT-116. It is filed as cell-based. Conditions: Homo sapiens, HCT-116, 72 h, read-out: In Vitro Cellular Activity IC50 HCT116. The gist of the method:
as §1

Assay [4] has as its system BT474. Put plainly: Cytotoxicity assay (SRB), BT474. The class given is cell-based. Conditions: Homo sapiens, BT-474, 144 h, read-out: In Vitro Cellular Activity IC50 BT474. The gist of the method: as §1
Assay [5] has as its target T2, cyclin E/CDK2 enzyme (Homo sapiens, UniProt P24941).
T2 construct: made in house; host or cells: Sf9 insect cells, recombinant baculovirus
Nature of the assay: CDK2 ELISA kinase assay (phospho-Rb ser 795 detection). The class given is biochemical. Put shortly: as §2

For assay [6], the target named is T3, cyclin B/CDK1 enzyme (Homo sapiens, UniProt P06493).
T3 construct: purchased New England BioLabs; host or cells: Sf9 insect cells, recombinant baculovirus
Nature of the assay: CDK1 ELISA kinase assay (phospho-Rb ser 795 detection). It is filed as biochemical. The gist of the method:
as §2

Assay [7] deals with MCF-7. Nature of the assay: Cytotoxicity assay (SRB), MCF-7. It is filed as cell-based. Conditions: Homo sapiens, MCF7, 72 h, read-out: In Vitro Cellular Activity IC50 MCF-7. The gist of the method:
as §1

[8] abbreviates: In Vitro Enzyme Assays, 200 μM ATP, read-out: CDK4 IC50.
The mark [9] stands for this setting: In Vitro Enzyme Assays, read-out: CDK2 IC50.
The mark [10] stands for this setting: In Vitro Enzyme Assays, read-out: CDK1 IC50.
Setting [11] is: In Vitro Enzyme Assay, cyclin D1/cdk 4, read-out: CDK4 IC50.
Where [12] appears, read: In Vitro Enzyme Assay, cyclin E/CDK2, read-out: CDK2 IC50.
[13] abbreviates: In Vitro Enzyme Assay, cyclin B/CDK1, read-out: CDK1 IC50.

Like-named read-outs stand apart in the source and are kept apart here.

T3 sequence (P06493 whole entry): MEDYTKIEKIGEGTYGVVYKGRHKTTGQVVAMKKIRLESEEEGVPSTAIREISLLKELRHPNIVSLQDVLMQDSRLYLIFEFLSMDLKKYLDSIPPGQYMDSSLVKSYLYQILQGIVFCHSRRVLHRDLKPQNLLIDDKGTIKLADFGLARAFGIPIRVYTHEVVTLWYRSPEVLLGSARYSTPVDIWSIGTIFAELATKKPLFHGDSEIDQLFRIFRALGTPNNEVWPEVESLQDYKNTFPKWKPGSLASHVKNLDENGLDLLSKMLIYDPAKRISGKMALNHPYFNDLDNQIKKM
T3 sequence (P14635 whole entry partner): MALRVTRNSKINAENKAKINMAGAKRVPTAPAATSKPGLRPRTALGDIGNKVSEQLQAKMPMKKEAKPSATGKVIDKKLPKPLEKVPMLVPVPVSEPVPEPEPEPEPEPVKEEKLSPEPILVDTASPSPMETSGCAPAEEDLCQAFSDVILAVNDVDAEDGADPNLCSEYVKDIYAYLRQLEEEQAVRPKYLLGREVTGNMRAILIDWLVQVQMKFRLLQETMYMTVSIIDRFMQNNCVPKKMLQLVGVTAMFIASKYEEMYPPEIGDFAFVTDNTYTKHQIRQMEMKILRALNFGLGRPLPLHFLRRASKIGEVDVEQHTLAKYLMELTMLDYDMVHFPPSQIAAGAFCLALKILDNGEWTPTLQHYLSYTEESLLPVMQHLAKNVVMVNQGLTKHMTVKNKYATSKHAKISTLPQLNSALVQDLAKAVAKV
T1 sequence (P11802 whole entry, species assumed): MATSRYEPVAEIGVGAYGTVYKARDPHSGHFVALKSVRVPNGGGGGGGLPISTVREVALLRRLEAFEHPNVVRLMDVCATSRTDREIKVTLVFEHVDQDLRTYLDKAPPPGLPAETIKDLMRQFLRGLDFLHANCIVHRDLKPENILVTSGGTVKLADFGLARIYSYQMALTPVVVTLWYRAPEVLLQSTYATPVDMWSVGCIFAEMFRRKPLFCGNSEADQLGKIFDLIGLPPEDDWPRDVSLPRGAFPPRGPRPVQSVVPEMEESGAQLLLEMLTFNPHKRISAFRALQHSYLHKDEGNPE
T1 sequence (P24385 whole entry partner, species assumed): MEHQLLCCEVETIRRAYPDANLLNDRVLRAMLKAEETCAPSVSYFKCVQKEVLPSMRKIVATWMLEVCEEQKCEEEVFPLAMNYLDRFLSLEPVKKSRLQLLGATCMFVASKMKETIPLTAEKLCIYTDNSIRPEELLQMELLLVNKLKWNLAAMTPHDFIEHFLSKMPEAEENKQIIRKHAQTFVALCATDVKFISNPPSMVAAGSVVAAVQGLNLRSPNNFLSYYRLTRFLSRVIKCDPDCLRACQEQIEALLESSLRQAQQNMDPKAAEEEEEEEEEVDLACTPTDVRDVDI

With `C/C=C/C(=O)Nc1ccc2c(c1)/C(=C/Nc1ccc(N3CCN(C)CC3)cc1)C(=O)NC2=O` [Example 384, (2E)-N-[(4Z)-4-({[4-(4-Methylpiperazin-1-yl)phenyl]amino}methylene)-1,3-dioxo-1,2,3,4-tetrahydroisoquinolin-6-yl]but-2-enamide], the IC50 (in general, the midpoint of a concentration-inhibition curve) in assay [1] (LoVo cells, SRB, three days) was 19 µM; in assay [2] (setting [8]), over 50 µM; in assay [3] (HCT116 cells, SRB, three days) it was 12 µM; in assay [4] (BT474 cells, SRB, 6 days) it was 26 µM; in assay [5] (setting [9]), over 50 µM; in assay [6] (setting [10]), 38.8 µM. The IC50 in assay [7] (MCF-7 cells, SRB, three days) is 24 µM.

Take `CN(C)NC(=O)Cc1ccc(N/C=C2\C(=O)NC(=O)c3ccc(Br)cc32)cc1` [Example 283, 2-(4-{[(Z)-(6-Bromo-1,3-dioxo-2,3-dihydroisoquinolin-4(1H)-ylidene)methyl]amino}phenyl)-N′,N′-dimethylacetohydrazide]: the IC50 in assay [1] is 17 µM; in assay [2] (setting [8]) it was 10 µM; in assay [3] it was 17 µM; in assay [4] it was 16 µM; in assay [5] (setting [9]), over 50 µM; in assay [6] (setting [10]) it was over 50 µM. The IC50 in assay [7] is 9.8 µM.

On to `CCCOc1cnc(CNC=C2C(=O)NC(=O)c3ccc(-n4cccc4)cc32)cc1O` [Example 363, 4-{[(4-Hydroxy-5-propoxy-pyridin-2-ylmethyl)-amino]-methylene}-6-pyrrol-1-yl-4H-isoquinoline-1,3-dione], for which the IC50 in assay [1] (LoVo cells, SRB, three days) is 2.3 µM; in assay [2] (setting [8]), 0.006 µM; in assay [3] (HCT116 cells, SRB, three days), 3.2 µM; in assay [4] (BT474 cells, SRB, 6 days), 1.5 µM; in assay [5] (setting [9]), 14.7 µM; in assay [6] (setting [10]), over 50 µM. For the same molecule, the IC50 in assay [7] (MCF-7 cells, SRB, three days) was 2.4 µM.

On to `COCCn1ccc(-c2ccc3c(c2)C(=CNc2ccc(N4CCN(C)CC4)cc2)C(=O)NC3=O)c1` [Example 843, 6-[1-(2-Methoxy-ethyl)-1H-pyrrol-3-yl]-4-{[4-(4-methyl-piperazin-1-yl)-phenylamino]-methylene}-4H-isoquinoline-1,3-dione], for which the IC50 in assay [1] (LoVo cells, 3 days, SRB) was over 50 µM; in assay [2] (setting [11]), 0.18 µM; in assay [3] (HCT116 cells, 3 days, SRB), 54.3 µM; in assay [4] (BT474 cells, 6 days, SRB), over 50 µM; in assay [5] (setting [12]) it was over 50 µM; in assay [6] (setting [13]) it was over 50 µM. Moreover, the IC50 in assay [7] (MCF-7 cells, 3 days, SRB) is 47.1 µM.

As for `O=C1NC(=O)c2ccc(I)cc2/C1=C/Nc1ccc(N2CCN(Cc3ccoc3)CC2)cc1` [Example 390, (4Z)-4-[({4-[4-(3-Furylmethyl)piperazin-1-yl]phenyl}amino)methylene]-6-iodoisoquinoline-1,3(2H,4H)-dione], the IC50 is over 50 µM in assay [1] (LoVo cells, 3 days, SRB); 0.88 µM in assay [2] (setting [8]); 17 µM in assay [3] (HCT116 cells, 3 days, SRB); over 50 µM in assay [4] (BT474 cells, 6 days, SRB); 19.3 µM in assay [5] (setting [9]); 1.45 µM in assay [6] (setting [10]). In assay [7] (MCF-7 cells, 3 days, SRB), the IC50 worked out at 22 µM.

As for `CN(C)CCCCN/C=C1\C(=O)NC(=O)c2ccc(Br)cc21` [Example 305, (Z)-6-Bromo-4-((4-(dimethylamino)butylamino)methylene)isoquinoline-1,3(2H,4H)-dione], the IC50 in assay [1] (LoVo cells, SRB, three days) is 14 µM; in assay [2] (setting [8]), 1.7 µM; in assay [3] (HCT116 cells, SRB, three days), 21 µM; in assay [4] (BT474 cells, SRB, 6 days) it was 23 µM; in assay [5] (setting [9]) it was 39.7 µM; in assay [6] (setting [10]) it was over 50 µM. In assay [7] (MCF-7 cells, SRB, three days), the half-inhibitory concentration (IC50) stood at 18 µM.

With `COc1ccc(CN/C=C2\C(=O)NC(=O)c3ccc(-c4cccc(F)c4)cc32)cc1O` [Example 209, (4Z)-6-(3-Fluorophenyl)-4-{[(3-hydroxy-4-methoxybenzyl)amino]methylene}iso-quinoline-1,3(2H,4H)-dione], the half-inhibitory concentration (IC50) in assay [1] (LoVo cells, SRB, three days) was 15 µM; in assay [2] (setting [8]), 0.01 µM; in assay [3] (HCT116 cells, SRB, three days) it was 7 µM; in assay [4] (BT474 cells, SRB, 6 days) it was 9.4 µM; in assay [5] (setting [9]), 9.2 µM; in assay [6] (setting [10]), over 50 µM. Moreover, in assay [7] (MCF-7 cells, SRB, three days), the IC50 came to 5.4 µM.

Turning to `COc1ccc(-c2ccc3c(c2)/C(=C/Nc2ccc(N4CCN(C)CC4)cc2)C(=O)NC3=O)cc1` [Example 114, (4Z)-6-(4-methoxyphenyl)-4-({[4-(4-methylpiperazin-1-yl)phenyl]amino}methylene)-isoquinoline-1,3(2H,4H)-dione], the IC50 in assay [1] (LoVo cells, SRB, three days) was 6.5 µM; in assay [2] (setting [8]) it was 7.4 µM; in assay [3] (HCT116 cells, SRB, three days), 1.9 µM; in assay [4] (BT474 cells, SRB, 6 days), 5 µM; in assay [5] (setting [9]) it was over 50 µM; in assay [6] (setting [10]), over 50 µM. Also, the concentration for half-maximal inhibition (IC50) in assay [7] (MCF-7 cells, SRB, three days) worked out at 6.3 µM.

Take `O=C1NC(=O)c2ccccc2C1=CNCc1ccc(NS(=O)(=O)CC(F)(F)F)cc1` [Example 591, 2,2,2-Trifluoro-ethanesulfonic acid (4{[(1,3-dioxo-2,3-dihydro-1H-isoquinolin-4-ylidenemethyl)-amino]-methyl}-phenyl)-amide]: the IC50 in assay [1] (LoVo cells, 3 days, SRB) was over 50 µM; in assay [2] (setting [11]) it was 23.2 µM; in assay [3] (HCT116 cells, 3 days, SRB), 41.5 µM; in assay [4] (BT474 cells, 6 days, SRB) it was 36.4 µM; in assay [5] (setting [12]) it was 25.4 µM; in assay [6] (setting [13]), 20.3 µM. Also, in assay [7] (MCF-7 cells, 3 days, SRB), the IC50 is 40 µM.

`N#Cc1cccc(-c2ccc3c(c2)C(=CNCc2ccc(O)c(O)c2)C(=O)NC3=O)c1` [Example 785, 3-{4-[(3,4-Dihydroxy-benzylamino)-methylene]-1,3-dioxo-1,2,3,4-tetrahydro-isoquinolin-6-yl}-benzonitrile]: the IC50 in assay [1] (LoVo cells, 3 days, SRB) is over 50 µM; in assay [2] (setting [11]), 1.2 µM; in assay [3] (HCT116 cells, 3 days, SRB), over 50 µM; in assay [4] (BT474 cells, 6 days, SRB), over 50 µM; in assay [5] (setting [12]) it was 38 µM; in assay [6] (setting [13]), over 50 µM. For the same molecule, the half-maximal inhibitory concentration (IC50) in assay [7] (MCF-7 cells, 3 days, SRB) was determined as 46.2 µM.

On to `O=C1NC(=O)c2ccc(-c3nccs3)cc2/C1=C/Nc1ccc(CN2CCC[C@H]2CO)cc1` [Example 472, 4-{[4-(2-Hydroxymethyl-pyrrolidin-1-ylmethyl)-phenylamino]-methylene}-6-thiazol-2-yl-4H-isoquinoline-1,3-dione], for which the IC50 in assay [1] (LoVo cells, 3 days, SRB) is 8.9 µM; in assay [2] (setting [11]), 0.6 µM; in assay [3] (HCT116 cells, 3 days, SRB), 5 µM; in assay [4] (BT474 cells, 6 days, SRB), 9.1 µM; in assay [5] (setting [12]), over 50 µM; in assay [6] (setting [13]) it was over 50 µM. In assay [7] (MCF-7 cells, 3 days, SRB), the IC50 stood at 14.2 µM.

As for `O=C1NC(=O)c2ccc(-c3cc4ccccc4s3)cc2C1=CNCc1ccc(O)c(O)c1` [Example 644, 6-Benzo[b]thiophen-2-yl-4-[(3,4-dihydroxy-benzylamino)-methylene]-4H-isoquinoline-1,3-dione], the IC50 in assay [1] (LoVo cells, 3 days, SRB) is 19.1 µM; in assay [2] (setting [11]), 2 µM; in assay [3] (HCT116 cells, 3 days, SRB) it was 14.1 µM; in assay [4] (BT474 cells, 6 days, SRB), 17.9 µM; in assay [5] (setting [12]), over 50 µM; in assay [6] (setting [13]) it was over 50 µM. For the same molecule, the IC50 in assay [7] (MCF-7 cells, 3 days, SRB) was determined as 6.3 µM.

With `O=C1NC(=O)c2ccccc2/C1=C/Nc1ccc(CN2CCCC2)cc1` [Example 576, 4-[(4-Pyrrolidin-1-ylmethyl-phenylamino)-methylene]-4H-isoquinoline-1,3-dione], the IC50 in assay [1] (LoVo cells, 3 days, SRB) was 19.1 µM; in assay [2] (setting [11]), 7.5 µM; in assay [3] (HCT116 cells, 3 days, SRB) it was 6.3 µM; in assay [4] (BT474 cells, 6 days, SRB) it was 7.4 µM; in assay [5] (setting [12]), 39.8 µM; in assay [6] (setting [13]) it was 13.8 µM. Moreover, in assay [7] (MCF-7 cells, 3 days, SRB), the IC50 was found to be 7.6 µM.

On to `CCNCC1CCN(c2ccc(N/C=C3\C(=O)NC(=O)c4ccc(I)cc43)cc2)CC1` [Example 456, (4Z)-4-{[(4-{4-[(Ethylamino)methyl]piperidin-1-yl}phenyl)amino]methylene}-6-iodoisoquinoline-1,3(2H,4H)-dione], for which the IC50 in assay [1] (LoVo cells, 3 days, SRB) is 8.3 µM; in assay [2] (setting [11]), 0.47 µM; in assay [3] (HCT116 cells, 3 days, SRB) it was 2.7 µM; in assay [4] (BT474 cells, 6 days, SRB) it was 9.2 µM; in assay [5] (setting [12]), over 50 µM; in assay [6] (setting [13]) it was over 50 µM. Besides, in assay [7] (MCF-7 cells, 3 days, SRB), the IC50 stood at 11 µM.

The values above are taken from patent US7713994B2 (Wyeth LLC, priority 2005, dated 2010).
